Experimental data reported in patent US20180193472A1, “TRANSPORT PEPTIDES FOR TRANSCELLULAR DELIVERY OF BIOLOGICAL AND THERAPEUTIC AGENTS” (priority 2017, published 2018).
One block for each compound: values may come before it. Where a SMILES comes first, the peptide text is derived from it. Where no end group is shown, it is not given here. The star is where a group is joined. 5FAM = O=C1OC2(c3ccc(O)cc3Oc3cc(O)ccc32)c2ccc(C(=O)*)cc21

Legend:
[1] = test system: monolayer of MDCKII cells; assay: Transwell apparent permeability (Papp) across a monolayer of MDCKII cells grown on a porous membrane; format: in vitro ADME, canine
Procedure: (§1) The transport peptides of the present invention were identified by modifying peptide sequences and testing these peptides in a Transwell assay measuring in vitro transcellular transport. The Transwell assay consists of two chambers separated from each other by a permeable porous membrane. Cells, most commonly canine kidney epithelial MDCK cells or human intestinal epithelial Caco-2 cells, are grown on the membrane and represent a model biological barrier. The drug, or peptide of interest, is added to the input chamber and the concentration in the receiver chamber is measured after a period of time. The rate at which the drug or peptide permeates across the cells (and the porous membrane) is the rate of drug's concentration increase in the receiver chamber after a period of time. The rate can be calculated and expressed in terms of apparent permeability (Papp), which takes into account the input concentration, the rate of concentration increase in the receiver well, solution volume in the receiver well, and the area of the cell monolayer. Substances with low permeability generally have Papp values on the order of 10^−7 cm/s, and substances with high permeabilities generally have Papp values on the order of 10^−5 cm/s or higher. There are several published reports where the CPPs were investigated for their ability to deliver cargo transcellularly using a Transwell assay: Violini et al reported low permeabilities of 3.1×10^−8 cm/s and 7.4×10^−8 cm/s for TC-radiolabeled Tat 48-57 across Caco-2 and MDCK II cells, respectively.
(§2) The apparent permeabilities (Papp) of four compounds were determined across a monolayer of MDCKII cells, grown on a porous membrane. The four compounds were the following and are represented in FIGS. 2-3: 1) a transport peptide of the present invention, CL, attached to 5-Carboxyfluorescein (MW: 376.3) and designated as [5-FAM]CL peptide, 2) 5-Carboxyfluorescein attached to H3R8 ([5-FAM] H3R8 MW: 2,263.5 and the H3R8 peptide is shown in FIG. 4b) 3) 5-Carboxyfluorescein designated as 5-FAM and 4) Lucifer Yellow designated as LY (MW:457.25, Product Number L-453, Life Technologies). The following concentrations of [5-FAM] CL, [5-FAM] H3R8, 5-FAM, and LY compound were applied to the monolayer of MDCKII cells at approximately 0.2 μM, 0.4-0.9 μM, 4 μM, and 100 μM, respectively. The peptides and dyes were resuspended in HEPES- and glucose-supplemented 1×HBSS buffer. The permeability experiments were conducted for 1 hour at 37° C. Error bars represent standard error (SE). CL and H3R8 are conjugated to 5-FAM at the N-termini. H3R8 is based on oligoarginine CPPs that has been reported to deliver cargo intracellularly. LY is used to assess monolayer integrity (Papp≤10̂−6 cm/s verifies monolayer integrity). The permeability of LY is on the order of 10̂−7 cm/s and is thus consistent with literature values for a monolayer with good barrier properties. [5-FAM]

[2] = as above; format: in vitro ADME, canine; settings: MDCK
Procedure: as §1, §2

[3] = test system: monolayer of MDCKII cells; format: cell-based, canine
Text: The inventors identified cationic transport peptides that are capable of transcellular delivery of cargo across a monolayer of MDCKII cells grown on a porous membranes. One embodiment of the invention is a CL peptide, conjugated to a fluorescent dye 5-FAM (fluorescein), has a Papp value of (1.3±0.2)×10^−5 cm/s, which approaches the permeability rates of the fast-permeating molecules into the brain (Papp ≈10^−5 to 10^−4 cm/s). The CL peptide, conjugated to 5-FAM, enhanced 30-fold the rate of permeation of 5-FAM across the biological barrier. This is especially significant because MDCKII cells are virtually impermeable to 5-FAM (Papp=(4.1±0.6)×10^−7 cm/s) unless it is conjugated to the novel peptide. In addition, the CL peptide was able to deliver 5-FAM without compromising the junctional integrity of the model cell monolayer. Junctional integrity of the monolayer can be measured by transepithelial electrical resistance (TEER), which signifies resistance to the flow of ions across a cell monolayer. If the tight junctions between the cells are compromised, the TEER decreases.
FIG. 3 illustrates the % TEER change in the monolayer of MDCKII cells. Error bars represent SD with n=3 for all except LY, n=6. […] CL and [5-FAM] […] The data indicates the high permeability rates, observed for a transport peptide of the present invention, [5-FAM] […]

Compound: O=C(O)c1ccc2c(c1)C(=O)OC21c2ccc(O)cc2Oc2cc(O)ccc21 [5-FAM, 5-Carboxyfluorescein]
apparent permeability (Papp) ([1]; monolayer of MDCKII cells on porous membrane, 1 hour at 37° C, HEPES- and glucose-supplemented 1×HBSS): (4.1±0.6)×10^−7 cm/s

Compound: CC(=O)N[C@@H](CCCCNC(=O)c1ccc2c(c1)C(=O)OC21c2ccc(O)cc2Oc2cc(O)ccc21)C(=O)NCC(=O)N[C@@H](CCCNC(=N)N)C(=O)N[C@@H](CC(C)C)C(=O)N[C@@H](CC(C)C)C(=O)N[C@@H](CCCNC(=N)N)C(=O)N[C@@H](CC(C)C)C(=O)N[C@@H](CC(C)C)C(=O)N[C@@H](CCCNC(=N)N)C(=O)N[C@@H](CCCNC(=N)N)C(=O)N[C@@H](CCCNC(=N)N)C(=O)N[C@@H](CCCNC(=N)N)C(=O)N[C@@H](CCCNC(=N)N)C(=O)N[C@@H](CCCNC(=N)N)C(=O)N[C@@H](CCCNC(=N)N)C(=O)N[C@@H](CCCNC(=N)N)C(N)=O [[5-FAM] CL] (Ac-K(5FAM)GRLLRLLRRRRRRRR-NH2; N-terminus and C-terminus assumed)
Papp [2]: 130 nm/s
enhancement of the rate of permeation (Papp) relative to 5-FAM ([1]; MDCK): 30 fold
% TEER change after the permeability experiment [3]: did not result in a significant % TEER decrease

Compound: HHHRRRRRRRR [H3R8]
ability to deliver 5-FAM across a monolayer of MDCKII cells ([1]; MDCK): not capable to deliver 5-FAM across a monolayer of MDCKII cells

% TEER change after the permeability experiment [3]: did not significantly affect the TEER
Compound: KGRLLRLLRRRRRRRR [CL peptide]

apparent permeability (Papp) ([1]; MDCK): ~10̂−7 cm/s
Compound: Lucifer Yellow [LY]
